# Data published in patent publication US20230015823A1, “METHODS OF ADMINISTERING VOXELOTOR” (Global Blood Therapeutics, Inc., priority 2019, published 2023).
# Tests used:
# CYP3A4 [1] = molecular target: T1, CYP3A4 (Homo sapiens, UniProt P08684); test: Effect of voxelotor on PK of CYP3A4 probe substrate midazolam in healthy subjects; conditions: human, in vivo
# Protocol: During Period 1, subjects received a single dose of caffeine 100 mg, warfarin sodium 10 mg+vitamin K 10 mg, omeprazole 20 mg, and midazolam hydrochloride 2 mg on Day 1. During Period 2, subjects received voxelotor 900 mg QD on Days 1 and 2 followed by 600 mg QD on Day 3, a single dose of caffeine 100 mg, warfarin sodium 10 mg+vitamin K 10 mg, omeprazole 20 mg, and midazolam hydrochloride 2 mg on Day 4, and voxelotor 600 mg QD on Days 4 through 7.
# Whole blood and plasma concentrations of voxelotor and plasma concentrations of caffeine, paraxanthine, S-warfarin, omeprazole, 5-hydroxyomeprazole, midazolam, and 1-hydroxymidazolam were determined using validated assays.
# CYP3A4 [2] = molecular target: T1, CYP3A4; test: Metabolism (in vitro and in vivo studies); type: in vitro ADME; conditions: minor contribution from CYP2C19, CYP2B6 and CYP2C9
# Description: In vitro and in vivo studies indicate that voxelotor is extensively metabolized through Phase I (oxidation and reduction), Phase II (glucuronidation) and combinations of Phase I and II metabolism.
# P-gp = P-gp (Homo sapiens, UniProt P08183); test: In vitro transporter studies: P-gp; type: in vitro ADME
# OATP1B3 = OATP1B3 (Homo sapiens, UniProt Q9NPD5); test: In vitro transporter studies: OATP1B3; type: in vitro ADME
# MATE1 = MATE1 (Homo sapiens, UniProt Q96FL8); test: In vitro transporter studies: MATE1; type: in vitro ADME
# OATP1A2 = OATP1A2 (Homo sapiens, UniProt P46721); test: In vitro transporter studies: OATP1A2; type: in vitro ADME
# rat = test: Rat Comet assay; type: in vivo
# Description: Voxelotor was not genotoxic in the reverse mutation bacterial (Ames) test, rat Comet assay, or rat micronucleus assay.
# Sequence of P-gp (P08183 whole entry): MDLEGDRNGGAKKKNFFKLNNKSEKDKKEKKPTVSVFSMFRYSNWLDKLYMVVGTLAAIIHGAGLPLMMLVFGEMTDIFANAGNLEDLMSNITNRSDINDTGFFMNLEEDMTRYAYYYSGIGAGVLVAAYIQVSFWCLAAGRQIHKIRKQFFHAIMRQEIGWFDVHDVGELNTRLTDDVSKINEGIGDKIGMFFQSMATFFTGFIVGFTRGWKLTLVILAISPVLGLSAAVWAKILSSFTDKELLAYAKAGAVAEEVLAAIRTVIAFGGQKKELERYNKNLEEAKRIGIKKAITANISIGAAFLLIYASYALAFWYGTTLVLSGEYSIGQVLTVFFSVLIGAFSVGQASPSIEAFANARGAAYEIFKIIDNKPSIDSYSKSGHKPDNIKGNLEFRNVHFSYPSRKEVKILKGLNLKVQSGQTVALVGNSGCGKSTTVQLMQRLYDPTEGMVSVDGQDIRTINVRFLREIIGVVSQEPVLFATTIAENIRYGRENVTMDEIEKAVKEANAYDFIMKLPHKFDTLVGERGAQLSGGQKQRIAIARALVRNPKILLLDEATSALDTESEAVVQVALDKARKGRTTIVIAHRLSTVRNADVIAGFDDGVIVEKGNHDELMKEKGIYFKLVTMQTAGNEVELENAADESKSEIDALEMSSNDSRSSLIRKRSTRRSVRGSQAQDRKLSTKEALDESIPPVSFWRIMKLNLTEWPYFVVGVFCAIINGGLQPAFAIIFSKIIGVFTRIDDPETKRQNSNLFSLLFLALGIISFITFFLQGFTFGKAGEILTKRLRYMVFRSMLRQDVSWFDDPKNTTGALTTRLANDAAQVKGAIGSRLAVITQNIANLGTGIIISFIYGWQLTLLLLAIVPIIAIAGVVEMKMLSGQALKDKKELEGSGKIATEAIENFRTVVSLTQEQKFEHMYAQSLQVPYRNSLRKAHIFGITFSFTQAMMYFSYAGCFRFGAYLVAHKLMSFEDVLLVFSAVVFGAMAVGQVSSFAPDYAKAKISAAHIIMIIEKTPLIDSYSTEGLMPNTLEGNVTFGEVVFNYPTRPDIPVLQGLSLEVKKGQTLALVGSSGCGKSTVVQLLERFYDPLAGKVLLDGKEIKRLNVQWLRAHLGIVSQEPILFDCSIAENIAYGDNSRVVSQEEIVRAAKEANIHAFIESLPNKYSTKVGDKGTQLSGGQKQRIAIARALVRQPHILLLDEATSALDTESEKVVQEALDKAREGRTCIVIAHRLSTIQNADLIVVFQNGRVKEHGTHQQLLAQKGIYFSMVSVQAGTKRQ
# Sequence of OATP1B3 (Q9NPD5 whole entry): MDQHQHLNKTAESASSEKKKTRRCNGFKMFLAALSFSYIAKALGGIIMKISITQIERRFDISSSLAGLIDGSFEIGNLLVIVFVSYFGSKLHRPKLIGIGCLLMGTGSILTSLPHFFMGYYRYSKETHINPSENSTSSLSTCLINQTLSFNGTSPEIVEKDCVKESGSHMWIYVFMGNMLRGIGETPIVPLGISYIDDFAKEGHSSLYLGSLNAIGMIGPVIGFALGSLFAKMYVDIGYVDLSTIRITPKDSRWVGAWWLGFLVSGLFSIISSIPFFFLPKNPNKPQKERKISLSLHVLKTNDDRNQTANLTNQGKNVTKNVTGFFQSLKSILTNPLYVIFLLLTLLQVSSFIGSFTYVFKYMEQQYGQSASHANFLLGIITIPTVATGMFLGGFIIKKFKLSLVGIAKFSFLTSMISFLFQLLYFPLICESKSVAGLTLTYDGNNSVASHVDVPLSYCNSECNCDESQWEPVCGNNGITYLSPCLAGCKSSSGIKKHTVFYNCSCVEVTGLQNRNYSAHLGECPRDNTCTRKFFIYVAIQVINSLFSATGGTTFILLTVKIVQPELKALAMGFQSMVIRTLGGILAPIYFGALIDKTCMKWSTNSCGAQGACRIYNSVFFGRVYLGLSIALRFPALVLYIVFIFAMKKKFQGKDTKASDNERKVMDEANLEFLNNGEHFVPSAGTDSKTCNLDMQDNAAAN
# T1 sequence (P08684 whole entry): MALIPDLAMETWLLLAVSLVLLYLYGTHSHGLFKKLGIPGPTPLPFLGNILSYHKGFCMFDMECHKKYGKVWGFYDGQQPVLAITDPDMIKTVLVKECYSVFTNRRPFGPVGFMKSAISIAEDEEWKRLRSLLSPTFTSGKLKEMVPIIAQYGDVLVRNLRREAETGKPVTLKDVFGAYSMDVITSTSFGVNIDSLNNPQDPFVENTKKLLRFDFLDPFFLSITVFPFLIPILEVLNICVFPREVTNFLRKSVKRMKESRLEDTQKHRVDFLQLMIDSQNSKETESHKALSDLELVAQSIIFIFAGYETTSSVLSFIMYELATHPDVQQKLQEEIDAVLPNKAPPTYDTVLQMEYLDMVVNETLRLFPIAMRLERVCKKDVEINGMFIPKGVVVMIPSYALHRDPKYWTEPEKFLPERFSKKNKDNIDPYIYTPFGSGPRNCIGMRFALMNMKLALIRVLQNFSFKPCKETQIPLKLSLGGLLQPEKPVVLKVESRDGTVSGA
# Sequence of OATP1A2 (P46721 whole entry): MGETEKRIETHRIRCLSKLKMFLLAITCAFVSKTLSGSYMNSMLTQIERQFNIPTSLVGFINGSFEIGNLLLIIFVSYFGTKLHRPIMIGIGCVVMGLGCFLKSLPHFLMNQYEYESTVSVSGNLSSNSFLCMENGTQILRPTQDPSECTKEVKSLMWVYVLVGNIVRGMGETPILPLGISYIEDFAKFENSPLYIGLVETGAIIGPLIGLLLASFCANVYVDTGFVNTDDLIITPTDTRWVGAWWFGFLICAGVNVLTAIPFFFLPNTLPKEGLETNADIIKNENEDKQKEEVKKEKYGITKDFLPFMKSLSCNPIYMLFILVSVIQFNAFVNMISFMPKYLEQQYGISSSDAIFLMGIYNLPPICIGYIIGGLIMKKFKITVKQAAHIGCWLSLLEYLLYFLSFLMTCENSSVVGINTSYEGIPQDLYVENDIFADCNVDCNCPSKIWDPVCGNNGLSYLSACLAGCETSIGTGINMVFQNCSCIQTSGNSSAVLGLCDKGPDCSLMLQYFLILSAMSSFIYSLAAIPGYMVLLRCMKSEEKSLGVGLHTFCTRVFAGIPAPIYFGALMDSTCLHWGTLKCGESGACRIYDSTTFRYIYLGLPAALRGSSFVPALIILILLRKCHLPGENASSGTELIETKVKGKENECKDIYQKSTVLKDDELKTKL
# Sequence of MATE1 (Q96FL8 whole entry): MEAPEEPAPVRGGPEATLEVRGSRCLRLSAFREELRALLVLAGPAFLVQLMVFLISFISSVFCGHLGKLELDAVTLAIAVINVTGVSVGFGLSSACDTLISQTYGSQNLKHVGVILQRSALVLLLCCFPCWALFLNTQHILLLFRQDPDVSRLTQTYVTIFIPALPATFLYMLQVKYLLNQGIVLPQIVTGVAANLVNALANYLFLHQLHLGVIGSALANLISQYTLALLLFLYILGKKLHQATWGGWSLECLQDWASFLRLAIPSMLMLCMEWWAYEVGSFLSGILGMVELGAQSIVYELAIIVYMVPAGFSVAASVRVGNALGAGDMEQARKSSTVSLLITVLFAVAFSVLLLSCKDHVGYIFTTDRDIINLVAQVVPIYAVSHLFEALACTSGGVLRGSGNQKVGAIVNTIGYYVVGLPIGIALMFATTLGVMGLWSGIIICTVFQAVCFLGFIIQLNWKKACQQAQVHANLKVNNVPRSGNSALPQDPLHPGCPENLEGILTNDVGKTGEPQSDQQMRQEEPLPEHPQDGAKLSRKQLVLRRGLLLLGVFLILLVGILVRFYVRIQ
smiles,measurement,setting,value
"CC(C)n1nccc1-c1ncccc1COc1cccc(O)c1C=O [voxelotor, 2-hydroxy-6-((2-(1-isopropyl-1H-pyrazol-5-yl)pyridin-3-yl)methoxy)benzaldehyde]",inhibition of CYP3A4 in vivo,CYP3A4 [1],inhibits
same,enzymes mediating oxidation of voxelotor,CYP3A4 [2],mediated primarily by CYP3A4
same,inhibition of P-gp,P-gp,not an inhibitor
same,substrate of P-gp,P-gp,not a substrate
same,inhibition of OATP1B3,OATP1B3,not an inhibitor
same,substrate of OATP1B3,OATP1B3,not a substrate
same,inhibition of MATE1,MATE1,not an inhibitor
same,substrate of OATP1A2,OATP1A2,not a substrate
same,genotoxicity,rat,not genotoxic
